Patent publication US20260210939A1, “MODIFIED OLFACTORY RECEPTORS” (GIVAUDAN SA, priority 2022, published 2026)
Each block holds one compound with its values, some of them ahead of it.

Tests used:
OR2T4 = biological target: T1, OR2T4 (Homo sapiens, UniProt Q8NH00, D328E/G331D/M330K); conditions: OR2T4 with optimized C-terminus SEQ ID NO: 86
T1 sequence (Q8NH00 with tags, fused parts or gaps D328E/M330K/G331D): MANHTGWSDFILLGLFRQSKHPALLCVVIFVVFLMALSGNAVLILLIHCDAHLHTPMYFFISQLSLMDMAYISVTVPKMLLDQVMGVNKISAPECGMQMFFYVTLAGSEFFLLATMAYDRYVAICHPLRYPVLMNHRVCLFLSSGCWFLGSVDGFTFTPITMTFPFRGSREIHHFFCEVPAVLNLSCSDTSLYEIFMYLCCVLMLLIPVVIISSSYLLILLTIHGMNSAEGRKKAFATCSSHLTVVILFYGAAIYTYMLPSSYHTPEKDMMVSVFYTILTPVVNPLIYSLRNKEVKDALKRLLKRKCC

OR2T11 = biological target: T2, OR2T11 (Homo sapiens, UniProt Q8NH01, C119R); assay: CRE-luciferase assay, HEK293T cells expressing OR2T11 (wild-type / modified C-terminus); format: cell-based
T2 construct: Improved functional expression of modified OR-genes containing the truncated, optimized C-terminus; expressed in transfected cells; host or cells: HEK293T stably expressing human RTP1S(V227I) and RTP2(L220R)
T2 sequence (Q8NH01 with tags, fused parts or gaps C119R): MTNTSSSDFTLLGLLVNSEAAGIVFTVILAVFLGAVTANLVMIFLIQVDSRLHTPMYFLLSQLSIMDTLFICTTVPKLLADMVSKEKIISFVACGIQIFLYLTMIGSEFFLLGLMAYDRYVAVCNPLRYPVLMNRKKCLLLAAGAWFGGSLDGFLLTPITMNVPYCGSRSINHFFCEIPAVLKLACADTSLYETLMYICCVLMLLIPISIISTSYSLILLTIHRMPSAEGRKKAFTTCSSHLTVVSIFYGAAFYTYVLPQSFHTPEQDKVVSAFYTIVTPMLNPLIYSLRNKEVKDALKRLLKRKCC

OR8K3 = biological target: T3, OR8K3 (Homo sapiens, UniProt Q8NH51, D295E/L122R/Y298D); assay: cell-based; format: cell-based
T3 construct: Improved functional expression of modified OR-genes containing the truncated, optimized C-terminus; expressed in transfected cells; host or cells: HEK293T stably expressing human RTP1S(V227I) and RTP2(L220R)
T3 sequence (Q8NH51 with tags, fused parts or gaps L122R/D295E/Y298D): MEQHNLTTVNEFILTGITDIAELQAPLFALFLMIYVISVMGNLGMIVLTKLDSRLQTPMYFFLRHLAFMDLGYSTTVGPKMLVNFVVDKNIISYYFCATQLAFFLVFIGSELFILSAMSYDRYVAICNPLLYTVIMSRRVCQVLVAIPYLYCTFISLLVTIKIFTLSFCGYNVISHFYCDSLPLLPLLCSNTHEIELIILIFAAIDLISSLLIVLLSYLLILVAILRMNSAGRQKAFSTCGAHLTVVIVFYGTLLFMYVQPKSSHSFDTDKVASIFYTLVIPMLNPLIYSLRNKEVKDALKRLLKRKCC

OR10A3 = biological target: T4, OR10A3 (Homo sapiens, UniProt P58181); assay: Dose-response test of single lactones on OR10A3 (luciferase); format: cell-based
T4 construct: Class II OR library members with modified C-terminal domains; expressed in transfected cells
T4 sequence (P58181 with tags, fused parts or gaps): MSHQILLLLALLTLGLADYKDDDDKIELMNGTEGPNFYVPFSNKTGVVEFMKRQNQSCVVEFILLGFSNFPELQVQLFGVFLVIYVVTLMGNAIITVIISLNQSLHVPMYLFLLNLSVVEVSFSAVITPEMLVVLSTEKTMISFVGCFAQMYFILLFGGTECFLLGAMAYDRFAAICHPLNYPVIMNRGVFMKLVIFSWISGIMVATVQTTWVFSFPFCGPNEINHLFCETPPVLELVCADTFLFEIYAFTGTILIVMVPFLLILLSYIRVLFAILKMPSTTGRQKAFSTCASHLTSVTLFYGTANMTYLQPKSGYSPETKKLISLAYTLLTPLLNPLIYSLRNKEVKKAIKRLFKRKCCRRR
Experimental: (§1) In a subsequent de-convultion experiment, the single ingredients were tested in a dose-response test on all the identified OR. […] Thus, OR2AP1 and OR2J2 are particularly strongly activated by the long-chain dodecalactone gamma, while OR10A3 is very sensitive to several longer chain lactones. […] Among the five OR, OR10A3 is the most sensitive.

OR2J2 = biological target: T5, OR2J2 (Homo sapiens, UniProt O76002, A146V/A218T/A302I/G300K/H297E/H74Y); assay: Dose-response test of single lactones on OR2J2; format: cell-based
T5 construct: expressed in transfected cells; transient transfection of pcDNA3.1(+) OR plasmid
T5 sequence (O76002 with tags, fused parts or gaps H74Y/A146V/A218T/H297E/G300K/A302I limits assumed): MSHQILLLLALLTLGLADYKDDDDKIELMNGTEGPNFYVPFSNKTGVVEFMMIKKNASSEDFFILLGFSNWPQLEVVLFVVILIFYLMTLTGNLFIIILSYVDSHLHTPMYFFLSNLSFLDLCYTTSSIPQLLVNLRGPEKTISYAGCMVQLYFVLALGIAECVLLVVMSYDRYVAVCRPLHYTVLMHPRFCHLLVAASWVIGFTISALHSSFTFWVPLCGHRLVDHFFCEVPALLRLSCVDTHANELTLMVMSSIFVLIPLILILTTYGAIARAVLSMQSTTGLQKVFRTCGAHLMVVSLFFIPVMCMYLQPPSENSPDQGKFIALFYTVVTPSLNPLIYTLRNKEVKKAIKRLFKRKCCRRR
Experimental: as §1

[1] = biological target: T6, OR10A6(A117V, V140G, L287P) (Homo sapiens, UniProt Q8NH74, A117V/L287P/V140G); assay: Dose-response test of single lactones on OR10A6(A117V, V140G, L287P); format: cell-based
T6 construct: expressed in transfected cells; transient transfection of pcDNA3.1(+) OR plasmid
T6 sequence (Q8NH74 with tags, fused parts or gaps A117V/V140G/L287P limits assumed): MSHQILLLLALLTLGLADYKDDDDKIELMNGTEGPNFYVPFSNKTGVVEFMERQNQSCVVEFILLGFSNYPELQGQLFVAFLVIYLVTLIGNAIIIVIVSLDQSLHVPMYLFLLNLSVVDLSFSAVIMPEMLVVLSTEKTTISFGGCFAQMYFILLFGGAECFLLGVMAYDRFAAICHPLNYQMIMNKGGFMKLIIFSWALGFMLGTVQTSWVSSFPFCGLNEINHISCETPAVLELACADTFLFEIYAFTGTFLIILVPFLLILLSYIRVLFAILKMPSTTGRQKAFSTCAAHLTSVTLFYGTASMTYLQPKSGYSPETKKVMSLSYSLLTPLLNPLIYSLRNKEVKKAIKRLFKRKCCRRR
Experimental: as §1

OR10J1(M51I, I92M) = biological target: T7, OR10J1(M51I, I92M) (Homo sapiens, UniProt P30954, I103M/M62I); assay: Dose-response test of single lactones on OR10J1(M51I, I92M); format: cell-based
T7 construct: expressed in transfected cells; transient transfection of pcDNA3.1(+) OR plasmid
T7 sequence (P30954 with tags, fused parts or gaps M62I/I103M): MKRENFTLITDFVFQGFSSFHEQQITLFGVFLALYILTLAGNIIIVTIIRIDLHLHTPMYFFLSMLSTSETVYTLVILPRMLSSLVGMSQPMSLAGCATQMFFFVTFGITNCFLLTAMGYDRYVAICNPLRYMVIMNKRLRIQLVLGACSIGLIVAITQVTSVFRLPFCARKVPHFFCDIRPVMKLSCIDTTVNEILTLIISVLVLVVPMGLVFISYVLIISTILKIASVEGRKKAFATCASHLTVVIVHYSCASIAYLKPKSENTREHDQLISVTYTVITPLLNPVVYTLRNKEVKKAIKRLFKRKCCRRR
Experimental: as §1

SMILES: C=CCSSCC=C [Diallyl disulfide]
ligand identification in sulfur odorant screen (OR2T4): good ligands
Comments on efficacy (OR2T11): No induction
Detection threshold; concentration for 2-fold induction (OR2T11; changed C-term. SEQ ID NO: 86): 2.03 µM
EC50 (OR2T11; changed C-term. SEQ ID NO: 86): 6.51 µM
Fold-improvement potency (OR2T11; changed C-term. vs wild-type): >>40
Fold-improvement threshold (OR2T11; changed C-term. vs wild-type): >100
Detection threshold; concentration for 2-fold induction (OR2T11; wild-type): >200 µM
EC50 (OR2T11; wild-type): > 200 µM

SMILES: CC1CCC(C(C)C)C(O)C1 (centres unmarked) [Menthol]
Comments on efficacy (OR8K3): 3-fold lower
functional response of chimeric OR8K3 (OR8K3; C-terminal sequence of OR1N2 or OR5AN1): did not show any functional response
EC50 (OR8K3; changed C-term. SEQ ID NO: 86): 115 µM
Fold-improvement potency (OR8K3; changed C-term. vs wild-type): 2
Fold-improvement threshold (OR8K3; changed C-term. vs wild-type): 14.4
EC50 (OR8K3; wild-type): 236 µM

SMILES: CCCCCC1CCC(=O)O1 (centres unmarked) [Nonalactone gamma]
EC10, concentration for 10-fold OR activation (OR10A3): 2.83 μM
EC2 (concentration for 2-fold luciferase induction) (OR2J2): 12.85 µM
EC2 (concentration for 2-fold luciferase induction) [1]: 11.34 µM
EC2 (concentration for 2-fold luciferase induction) (OR10J1(M51I, I92M)): 11.14 µM

SMILES: CCCCC1CCC(=O)O1 (centres unmarked) [Octalactone gamma]
EC10, concentration for 10-fold OR activation (OR10A3): 26.93 μM
EC2 (concentration for 2-fold luciferase induction) (OR2J2): 65.20 µM
EC2 (concentration for 2-fold luciferase induction) (OR10J1(M51I, I92M)): 101.73 µM

inactive up to concentration (OR8K3; wild-type OR8K3): > 316 µM
SMILES: CC(C)[C@@H]1CC[C@@H](C)CC1=O [menthone]
activation of the modified receptor variant (OR8K3; OR8K3, SEQ ID NO: 86): also activating the receptor, although with a lower potency
